Experimental data from paper PMC10376691, “Inhibition of Acetylcholinesterase and Amyloid-β Aggregation by Piceatannol and Analogs: Assessing In Vitro and In Vivo Impact on a Murine Model of Scopolamine-Induced Memory Impairment” (Antioxidants, 2023).
“Also recorded” adds a separate entry of the source.

What was measured:
db/db mice = settings: oral 50 mg/kg for 2–3 weeks; cited from earlier work
[1] = oral administration to rats; cited from earlier work
[2] = target: T1, mouse AChE activity in the brain extracts (Mus musculus, UniProt P21836); assay: AChE activity in brain extracts of scopolamine-induced ICR mice; type: in vivo; settings: PIC 50 mg/kg, donepezil 5 mg/kg oral; vs control p < 0.05
T1 construct: The protein content of the whole brain extracts from the mice was quantified using the BCA protein kit; from tissue; host or cells: whole brain extract of scopolamine-induced ICR mice
T1 sequence (P21836 32-614): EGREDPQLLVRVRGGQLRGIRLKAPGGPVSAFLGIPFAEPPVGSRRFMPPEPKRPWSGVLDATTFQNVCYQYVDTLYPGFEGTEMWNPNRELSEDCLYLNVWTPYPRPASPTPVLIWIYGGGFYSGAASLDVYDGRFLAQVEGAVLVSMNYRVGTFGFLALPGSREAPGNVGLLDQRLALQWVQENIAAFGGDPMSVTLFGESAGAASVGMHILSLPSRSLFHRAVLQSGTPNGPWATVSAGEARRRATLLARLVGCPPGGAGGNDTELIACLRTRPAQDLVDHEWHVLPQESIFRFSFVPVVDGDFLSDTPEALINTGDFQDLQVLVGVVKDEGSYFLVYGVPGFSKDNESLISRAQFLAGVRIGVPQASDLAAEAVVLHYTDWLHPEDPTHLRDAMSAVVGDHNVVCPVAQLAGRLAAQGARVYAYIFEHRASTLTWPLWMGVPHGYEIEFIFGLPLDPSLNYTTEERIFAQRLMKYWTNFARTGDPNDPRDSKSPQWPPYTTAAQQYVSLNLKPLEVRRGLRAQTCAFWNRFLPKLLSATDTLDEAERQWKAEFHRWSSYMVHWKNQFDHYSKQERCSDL
Experimental: The AChE activities in the mouse brain tissue extract were assayed following the method in Section 2.3, with some modifications. The protein content of the whole brain extracts from the mice was quantified using the BCA protein kit, with bovine serum albumin as the standard protein.

[3] = test system: scopolamine-induced amnesiac ICR mice; assay: Passive avoidance test in scopolamine-induced amnesiac ICR mice; type: in vivo, mouse; settings: PIC 50 mg/kg oral once a day, donepezil 5 mg/kg oral, scopolamine 1 mg/kg i.p.
Text: The scopolamine-induced cognitive dysfunctions of amnesiac ICR mice were used to evaluate the effects of PIC pre-treatments on the improvement of learning and memory functions, following previous reports. The animal experimental protocols were reviewed and approved by the Institutional Animal Care and Use Committee, Taipei Medical University (No. LAC-2021-0488). After a two-week acclimation, the mice were randomly divided into four groups (N = 5 for each group). In the first stage, the mice in the PIC group were orally pre-treated with PIC (50 mg/kg) using a feeding tube, once a day from day 1 to day 7; the mice in the blank, control, and donepezil groups were treated with the same volume of distilled water from day 1 to day 7. In the second stage, on day 8 and day 9, the mice in the PIC group and the donepezil group were orally treated once with PIC (50 mg/kg) and donepezil (positive control, 5 mg/kg), respectively, using a feeding tube; the mice in the blank and the control groups were treated with the same volume of distilled water. After 30 min, each mouse was injected intraperitoneally with scopolamine (1 mg/kg, dissolved in PBS), and the mice in the blank group were each injected with an equal volume of PBS instead of the scopolamine solution. Again, 30 min after the scopolamine or PBS injection, a learning and memory evaluation was performed on each mouse with the use of a 2-day passive avoidance test. All the mice were sacrificed at the end of the animal experiments, and the brain tissues of the mice in each group were isolated, weighted, and stored at −80 °C for further use.
A 2-day passive avoidance test, which included an acquisition trial on the first day and a retention trial on the second day, was used to evaluate the learning and memory functions of the scopolamine-induced cognitive dysfunctions of amnesiac ICR mice after PIC and donepezil treatments, following previous reports. A shuttle chamber (AccuScan Instruments Inc., Columbus, OH, USA) with a light box and a dark box separated by a sliding door was used. On day 8, after acclimation around the shuttle chamber for 30 min, each scopolamine-injected or PBS-injected mouse was placed in the light box for the acquisition trial. Once the mouse entered the dark box, the step-through latency (s) was recorded, and the sliding door was closed at the same time. Immediately after, the mouse was administered an electric foot shock (0.3 mA for 3 s) via the wired metal floor and then sent back to the cage. […] The step-through latency (period of time that each mouse stayed in the light box) was recorded again. […] The protein content of the whole brain extracts from the mice was quantified using the BCA protein kit, with bovine serum albumin as the standard protein. […]

Oc1cc(O)cc(C=Cc2ccc(O)c(O)c2)c1 [PIC, 3,5,3′,4′-tetrahydroxystilbene]
blood glucose levels (db/db mice): reduce blood glucose levels | bioavailability [1]: 50.7% | half-life [1]: 4.23 h | AChE activity in the brain extracts [2]: reductions in AChE activities | step-through latency, acquisition trial (first day) [3]: no significant difference among the groups | step-through latency, retention trial (second day) ([3]; vs control p < 0.05): improved learning behavior; also recorded: longer staying time
